Publication PMC3412845, “Waking Action of Ursodeoxycholic Acid (UDCA) Involves Histamine and GABAA Receptor Block” (PLoS ONE, 2012)

What was measured:
GABAA receptor = assay: Voltage dependence of GABAAR block (Woodhull analysis); assay type: cell-based; conditions: Woodhull fit, Eq. 3; for Kd: read-out: KD(0), dissociation constant at 0 mV
Protocol: Voltage dependence of GABAAR block by UDCA was analysed according to the method of Woodhull, which provides a means of calculating the fraction of the transmembrane field sensed by charged blocking ligand at its acceptor site.

[1] = target: T1, α1β2γ2L GABAA receptors (WT) (UniProt P22723+P62813+P63138); assay: Patch-clamp of recombinant wild-type α1β2γ2L GABAAR in HEK293 cells; assay type: cell-based, rat α1, rat β2, mouse γ2L; conditions: pregnenolone sulphate 10 µM
T1 construct: expressed in transfected cells; host or cells: HEK293
T1 sequence (P62813 28-455): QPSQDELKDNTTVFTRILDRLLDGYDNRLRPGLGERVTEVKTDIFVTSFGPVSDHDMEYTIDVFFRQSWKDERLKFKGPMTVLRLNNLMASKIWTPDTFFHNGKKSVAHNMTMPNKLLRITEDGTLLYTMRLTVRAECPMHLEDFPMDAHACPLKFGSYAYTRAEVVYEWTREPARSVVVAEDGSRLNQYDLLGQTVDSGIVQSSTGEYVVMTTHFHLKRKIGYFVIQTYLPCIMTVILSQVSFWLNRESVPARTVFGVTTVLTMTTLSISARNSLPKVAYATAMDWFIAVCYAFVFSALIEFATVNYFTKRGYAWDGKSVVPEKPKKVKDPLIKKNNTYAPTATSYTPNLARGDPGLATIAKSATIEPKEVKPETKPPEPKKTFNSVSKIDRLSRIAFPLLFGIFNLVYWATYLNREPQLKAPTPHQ
T1 sequence (P63138 25-474 limits assumed): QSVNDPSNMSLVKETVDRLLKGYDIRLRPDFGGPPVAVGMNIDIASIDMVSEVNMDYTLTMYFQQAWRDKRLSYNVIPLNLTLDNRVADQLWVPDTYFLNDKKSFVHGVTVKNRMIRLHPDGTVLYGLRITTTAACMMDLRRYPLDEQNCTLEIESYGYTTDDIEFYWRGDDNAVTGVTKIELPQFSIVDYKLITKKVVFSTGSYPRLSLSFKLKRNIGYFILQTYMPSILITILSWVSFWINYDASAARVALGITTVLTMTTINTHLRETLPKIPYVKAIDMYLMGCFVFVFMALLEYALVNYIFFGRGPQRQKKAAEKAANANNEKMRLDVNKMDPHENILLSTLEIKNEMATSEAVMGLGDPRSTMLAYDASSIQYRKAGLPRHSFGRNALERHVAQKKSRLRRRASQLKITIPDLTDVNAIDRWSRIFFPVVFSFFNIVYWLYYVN
T1 sequence (P22723 39-474): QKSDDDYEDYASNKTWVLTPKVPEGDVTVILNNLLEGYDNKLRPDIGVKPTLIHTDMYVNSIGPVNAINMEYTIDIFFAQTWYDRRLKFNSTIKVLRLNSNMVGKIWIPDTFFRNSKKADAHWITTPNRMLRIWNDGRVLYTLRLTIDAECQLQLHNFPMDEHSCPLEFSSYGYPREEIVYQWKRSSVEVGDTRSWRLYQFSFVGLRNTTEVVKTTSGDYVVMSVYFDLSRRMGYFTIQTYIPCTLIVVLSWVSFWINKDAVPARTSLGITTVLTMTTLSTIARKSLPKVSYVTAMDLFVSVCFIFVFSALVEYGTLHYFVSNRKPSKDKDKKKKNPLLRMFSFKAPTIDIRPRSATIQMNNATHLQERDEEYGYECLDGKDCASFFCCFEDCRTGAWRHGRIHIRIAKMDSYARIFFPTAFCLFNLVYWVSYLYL
Protocol: (§1) HEK 293 cells were obtained from DSM (Deutsche Sammlung von Mikroorganismen und Zellkulturen GmbH, DSM, Braunschweig). They were grown and maintained according to published standard protocols. Briefly, cells were grown in minimal essential medium supplemented with 10% fetal bovine serum, 100units/ml penicillin and streptomycin and 2 mM L-glutamine and splitted once per week. Semiconfluent cells were transfected on the third day after splitting with the help of Lipofectamine 2000 (Invitrogen), recordings were done 48–72 hrs after transfection.
(§2) The GABAAR subunit cDNAs, generously donated by G.Gisselmann (rat α1, mouse γ2L, rat β1, β2 and human β3 [26]) and J.H. Steinbach (rat α1V256S [28] and rat α1Q241L [44]), were subcloned into pcDNA3 (Invitrogen, Karlsruhe, Germany) and applied in a ratio 1∶1∶1 for the α1βxγ2L receptor and 1∶1 for α1β3 or β3γ2L receptors. […] For each receptor type patch clamp recordings were obtained from at least three separate transfections. Whole-cell patch clamp recordings were done in a similar extracellular solution as for the native cells (see above) except that the concentration of MgCl2 was reduced to 1.2 mM. Intracellular electrodes contained 140 mM CsCl (instead of KCl), pH adjusted with CsOH. The voltage was held at −40 mV.

[2] = target: T2, α1V256Sβ2γ2L GABAA receptors (UniProt P22723+P62813+P63138, V283S); assay: Patch-clamp of mutant α1V256Sβ2γ2L GABAAR in HEK293 cells; assay type: cell-based, rat α1V256S, rat β2, mouse γ2L; conditions: pregnenolone sulphate 10 µM
T2 construct: expressed in transfected cells; host or cells: HEK293
T2 sequence (P62813 28-455 V283S): as the sequence (P62813 28-455) above, with V256S counted along it
T2 sequence (P63138 25-474 limits assumed): as the sequence (P63138 25-474 limits assumed) above
T2 sequence (P22723 39-474): as the sequence (P22723 39-474) above
Protocol: as §1, §2

[3] = tested on: TMN neurons (eIPSCs and sIPSCs); assay: Spontaneous and evoked IPSCs in TMN neurons in brain slices; assay type: cell-based, rat; conditions: gabazine 10 µM, n = 5
Protocol: (§3) Recordings from histaminergic neurons in male Wistar rat (22–26 day old) or 30–60 day old mouse (SV129, histidine decarboxylase deficient HDC−/− or their wild type littermates) hypothalamic slices were performed as previously described. Slices were obtained between 9 and 11 a.m. In the beginning of whole-cell voltage clamp recordings TMN neurons were identified with the help of DIC microscopy and electrophysiological criteria as previously described. Inhibitory postsynaptic currents (IPSCs) were evoked by local stimulation through a bipolar stainless-steel stimulating electrode (50 µm; WPI, UK). The stimulation of axonal endings coming to TMN from ventrolateral preoptic area (VLPO) was done as described in [22]. […] Individual neurons were separated by vibrodissociation after brief preincubation with papain from the hypothalamic slices of mice or rats and identified as TMN neurons according to their size and shape. Identification was confirmed post hoc with the single-cell RT-PCR (all data presented in the manuscript were obtained from histidine decarboxylase-expressing neurons), [40]. TMN neurons from HDC−/− mice were identified by the expression of peripherin [16]. Whole-cell voltage-clamp recordings from isolated neurons were done with an EPC-9 amplifier and TIDA for Windows (HEKA, Lambrecht, Germany) at room temperature. Membrane potentials were not corrected for liquid junction potential (5.6 mV, calculated with LJPCalc, Barry, 1994). The intracellular solution was composed of (in mM) 140 KCl, 2 MgCl2, 0.5 CaCl2, 5 EGTA, 2 ATP and 10 HEPES (pH 7.2 adjusted with NaOH). A fast perfusion technique was used for application of ligands and modulators of fast ionotropic receptors, [41]. […] EC50 is the ligand concentration producing a half-maximal response, [ligand] is ligand concentration, and n is the Hill slope. Hill coefficients were obtained from the slope of the log/log plot of the dose-response curves. […] Steady-state amplitudes of the responses were used for the construction of dose-response plots if not mentioned otherwise.

[4] = tested on: isolated TMN neurons (sIPSCs); assay: sIPSCs in acutely isolated and cultured neurons; assay type: cell-based; conditions: gabazine
Protocol: as §3

native GABAA receptors = assay: GABA-evoked whole-cell currents in acutely isolated TMN neurons (wild type); assay type: cell-based, mouse
Protocol: as §3

[5] = tested on: GABAA receptors of HDC−/− TMN neurons; assay: GABA-evoked whole-cell currents in TMN neurons from HDC−/− mice; assay type: cell-based, mouse
Protocol: as §3

NMDA receptors = assay: NMDA-evoked currents in isolated neurons; assay type: cell-based; conditions: D-AP5 100 µM
Protocol: Recordings from histaminergic neurons in male Wistar rat (22–26 day old) or 30–60 day old mouse (SV129, histidine decarboxylase deficient HDC−/− or their wild type littermates) hypothalamic slices were performed as previously described. Slices were obtained between 9 and 11 a.m. In the beginning of whole-cell voltage clamp recordings TMN neurons were identified with the help of DIC microscopy and electrophysiological criteria as previously described. Inhibitory postsynaptic currents (IPSCs) were evoked by local stimulation through a bipolar stainless-steel stimulating electrode (50 µm; WPI, UK). The stimulation of axonal endings coming to TMN from ventrolateral preoptic area (VLPO) was done as described in [22]. Visual identification of histaminergic neurons recorded in cell-attached configuration (see [16]) was confirmed by the significant reduction of firing rate by the histamine 3 (H3) receptor agonist R-α-methylhistamine (0.2 µM), which was performed at the end of each experiment. Individual neurons were separated by vibrodissociation after brief preincubation with papain from the hypothalamic slices of mice or rats and identified as TMN neurons according to their size and shape. Identification was confirmed post hoc with the single-cell RT-PCR (all data presented in the manuscript were obtained from histidine decarboxylase-expressing neurons), [40]. TMN neurons from HDC−/− mice were identified by the expression of peripherin [16]. Whole-cell voltage-clamp recordings from isolated neurons were done with an EPC-9 amplifier and TIDA for Windows (HEKA, Lambrecht, Germany) at room temperature. Membrane potentials were not corrected for liquid junction potential (5.6 mV, calculated with LJPCalc, Barry, 1994). The intracellular solution was composed of (in mM) 140 KCl, 2 MgCl2, 0.5 CaCl2, 5 EGTA, 2 ATP and 10 HEPES (pH 7.2 adjusted with NaOH). A fast perfusion technique was used for application of ligands and modulators of fast ionotropic receptors, [41]. […] EC50 is the ligand concentration producing a half-maximal response, [ligand] is ligand concentration, and n is the Hill slope. Hill coefficients were obtained from the slope of the log/log plot of the dose-response curves. […] Steady-state amplitudes of the responses were used for the construction of dose-response plots if not mentioned otherwise.
For the testing of UDCA action at NMDA receptors a maximal 0.2 mM concentration of agonist was used. Recordings were done in Mg^2+ -free solution in the presence of 10 µM of glycine. NMDA-currents were abolished by the NMDA receptor antagonist D-AP5 (100 µM).

[6] = tested on: cultured hypothalamic neurons; assay: Microelectrode array (MEA) recordings of cultured hypothalamic neurons; assay type: cell-based, mouse; conditions: with GABAA receptor antagonist gabazine
Protocol: Primary dissociated cultures of posterior hypothalamus were prepared from newborn mice according to the protocols previously described, [43]. […] Recordings were done between 11th-21st day after plating. […] Signals from all 60 electrodes were simultaneously sampled at 25 kHz, visualized and stored using the standard software […] provided by Multi Channel Systems. Spike detection and analysis was performed offline with the software […] (RESULT Medizinische […], Germany), which uses the agreement coefficient “Cohen's kappa” (κ) to assess the degree of spike and burst synchrony for selected pairs of electrodes. […] In order to describe the distribution of kappa across the whole MEA, we calculated the mean of all kappa-values obtained for pairs of “active” electrodes. At the beginning of experiments the basal medium was replaced by a magnesium-free HEPES-based recording solution (see above) and measurements were started after a 20 min adaptation phase. Every measurement comprised three recordings - control, test substance and washout (second control) - each two minutes long and separated by an intermediate period of 30 seconds.

C[C@H](CCC(=O)O)[C@H]1CC[C@H]2[C@@H]3[C@H](O)C[C@@H]4C[C@H](O)CC[C@]4(C)[C@H]3C[C@H](O)[C@]12C [cholate]
fraction of the transmembrane field sensed at the acceptor site (f) (GABAA receptor): 0.3±0.02 | Kd (GABAA receptor): 710 µM

CC(=O)C1CCC2C3CC=C4CC(OS(=O)(=O)O)CCC4(C)C3CCC12C (centres unmarked) [Pregnenolone sulphate, pregnenolone sulphate]
steady-state amplitude of maximal GABA-currents [1]: 11±3 % of control | steady-state amplitude of maximal GABA-currents [2]: 82±6 % of control

C[C@H](CCC(=O)O)[C@H]1CC[C@H]2[C@@H]3[C@H](O)C[C@@H]4C[C@H](O)CC[C@]4(C)[C@H]3CC[C@]12C [CDOC, chenodeoxycholate]
fraction of the transmembrane field sensed at the acceptor site (f) (GABAA receptor): 0.33±0.02 | Kd (GABAA receptor): 42 µM

COc1ccc(-c2ccc(=N)n(CCCC(=O)O)n2)cc1 [Gabazine, gabazine]
eIPSCs and sIPSCs [3]: abolished | GABAergic sIPSCs in isolated TMN neuron [4]: abolished

CC1CC(C)(c2ccccc2)OC(C)O1 (centres unmarked) [vertacetal]
EC50 (native GABAA receptors; wild type neurons, n = 5, read-out: EC50 of GABAAR modulation by vertacetal): 13.4 ± 2.6 µM | EC50 ([5]; HDC−/− neurons, n = 5, read-out: EC50 of GABAAR modulation by vertacetal): 9.2 ± 3 µM

Cc1ccc(-c2nc3ccc(C)cn3c2CC(=O)N(C)C)cc1 [zolpidem]
modulation of GABAAR, HDC+/+ versus HDC−/− TMN neurons [5]: No difference

NC(CCCP(=O)(O)O)C(=O)O [D-AP5]
NMDA-currents (NMDA receptors): abolished

C[C@H](CCC(=O)O)[C@H]1CC[C@H]2[C@@H]3C(=O)C[C@@H]4CC(=O)CC[C@]4(C)[C@H]3CC(=O)[C@]12C [dehydrocholate]
fraction of the transmembrane field sensed at the acceptor site (f) (GABAA receptor): 0.33±0.03 | Kd (GABAA receptor): 1400 µM

picrotoxin
use dependence of block of GABA currents (native GABAA receptors): use-dependent block | reversibility of block of GABA currents (native GABAA receptors; GABA 10 µM, 1 s): not fully reversible

C[C@H](CCC(=O)NCCS(=O)(=O)O)[C@H]1CC[C@H]2[C@@H]3[C@@H](O)C[C@@H]4C[C@H](O)CC[C@]4(C)[C@H]3CC[C@]12C [TUDC, tauroursodeoxycholate]
effect on synchronization in the presence of gabazine [6]: blanks the effect
